Results reported in US10736898B2, “Positive allosteric modulators of the muscarinic acetylcholine receptor M4” (Vanderbilt University, priority 2017, dated 2020).

Experiments:
[1] = target: P450 2C9 (Homo sapiens, UniProt P11712); test: P450 2C9 inhibition; format: in vitro ADME
Method: (§1) Compound 1 was evaluated in several well-known in vitro assays to investigate both metabolism and pharmacokinetics. Bidirectional permeability/efflux was determined in MDCK-MDR1 cells, which originate from transfection of Madin Darby canine kidney (MDCK) cells with the MDR1 gene. These assays were performed according to known methods as generally described in the following references: Conde-Ceide et al. ACS Med. Chem. Lett. 2015, 6, 716-720; Morris et al. J. Med. Chem. 2014, 57, 10192-10197; and Bubser et al. ACS Chem. Neurosci. 2014, 5, 920-942.

[2] = Rat Fu (brain); format: in vitro ADME
Method: as §1

[3] = Rat Fu (plasma); format: in vitro ADME
Method: as §1

[4] = system: MDR1; test: Bidirectional permeability/efflux in MDCK-MDR1 cells; format: in vitro ADME, canine; details: dog
Method: as §1

[5] = system: MDCK-MDR1 cells; test: as above; format: in vitro ADME, canine; details: efflux ratio
Method: as §1

[6] = Human Fu (plasma); format: in vitro ADME
Method: as §1

[7] = system: male Sprague-Dawley rats; test: Reversal of amphetamine-induced hyperlocomotion in rats; format: in vivo, rat
Method: Drugs: d-Amphetamine hemisulfate was obtained from Sigma (St. Louis, Mo.). Salt-correction was used to determine the correct amount of the d-amphetamine hemisulfate form in milligrams to add to sterile water in order to yield a 0.75 mg/mL solution, which would be dosed at 1 mL/kg body weight of each animal. […] The solutions were formulated so that animals were injected with a volume equal to 10 mL/kg body weight for all compounds. The appropriate amount according to the dosage was mixed in 10% Tween 80 (Sigma) 90% sterile water. The mixtures were then vortexed and stored in a 39° C. sonication bath for 1 hour, until in a microsuspension (except for the highest dose, which was a suspension).
Animals: Male Sprague-Dawley rats weighing 239-300 grams and averaging 265 g (Harlan, Inc., Indianapolis, Ind.) were used. They were housed in the animal care facility certified by the American Association for the Accreditation of Laboratory Animal Care (AALAC) under a 12-hour light/dark cycle (lights on: 6 a.m.; lights off: 6 p.m.) and had free access to food and water. The animals used in this experiment were food-deprived the evening before experimentation for oral dosing of compound/vehicle. The experimental protocols performed during the light cycle were approved by the Institutional Animals Care and Use Committee of Vanderbilt University and conformed to the guidelines established by the National Research Council Guide for the Care and Use of Laboratory Animals.
Amphetamine-induced Hyperlocomotion: Male Harlan Sprague Dawley rats were habituated in Smart Open Field locomotor activity test chambers (Hamilton-Kinder, San Diego, Calif.) with 16×16 photo beams to automatically record locomotor activity. […] They were monitored for an additional 30 minutes and then injected subcutaneously with vehicle or […] amphetamine. Animals were then monitored for an additional 60 minutes, for a total of 120 minutes. Data were expressed as changes in ambulation defined as total number of beam breaks per 5 minute interval. […]
Data Analysis: Behavioral data were analyzed using a two-way ANOVA with main effects of treatment and time. […] In addition, the total number of beam breaks from the amphetamine administration (65 min) to the end of the study (120 min) was calculated and graphed. Percent Reversal was calculated as follows using Microsoft Excel: In each animal, total ambulation from t=65 to t=120 was summed. The mean of each sum was calculated in the VAMP group. Then, for each animal, Percent Reversal was calculated with the following formula: Percent Reversal=100−{[(total ambulation in each animal from t=65 to t=120)/(mean of each sum from t=65 to t=120 in VAMP group)]*100}. The mean Percent Reversal, as well as the standard error, was calculated for each dose group using GraphPad Prism V5.04.

[8] = target: P450 3A4 (Homo sapiens, UniProt P08684); test: P450 3A4 inhibition; format: in vitro ADME
Chain of P450 3A4 (P08684 whole entry): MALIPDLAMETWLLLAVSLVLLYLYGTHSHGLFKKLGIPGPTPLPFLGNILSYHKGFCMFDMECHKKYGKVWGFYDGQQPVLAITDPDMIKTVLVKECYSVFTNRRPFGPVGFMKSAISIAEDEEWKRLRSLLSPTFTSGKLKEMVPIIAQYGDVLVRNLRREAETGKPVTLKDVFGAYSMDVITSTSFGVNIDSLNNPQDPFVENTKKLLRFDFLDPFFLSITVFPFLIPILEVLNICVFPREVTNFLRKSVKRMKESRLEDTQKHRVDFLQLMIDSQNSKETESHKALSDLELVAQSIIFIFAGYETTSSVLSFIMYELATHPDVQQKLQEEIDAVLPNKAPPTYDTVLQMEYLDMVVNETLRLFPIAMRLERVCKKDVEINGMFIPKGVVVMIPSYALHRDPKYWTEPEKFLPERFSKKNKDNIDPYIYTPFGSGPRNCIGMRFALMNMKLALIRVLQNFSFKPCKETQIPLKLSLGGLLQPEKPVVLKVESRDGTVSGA
Method: as §1

[9] = target: T1, Human M4 (Homo sapiens, UniProt P08173); test: mAChR M4 cell-based functional assay (calcium flux, potentiation of EC20 acetylcholine response)
T1 construct: expressed in transfected cells
T1 sequence (P08173 1-479): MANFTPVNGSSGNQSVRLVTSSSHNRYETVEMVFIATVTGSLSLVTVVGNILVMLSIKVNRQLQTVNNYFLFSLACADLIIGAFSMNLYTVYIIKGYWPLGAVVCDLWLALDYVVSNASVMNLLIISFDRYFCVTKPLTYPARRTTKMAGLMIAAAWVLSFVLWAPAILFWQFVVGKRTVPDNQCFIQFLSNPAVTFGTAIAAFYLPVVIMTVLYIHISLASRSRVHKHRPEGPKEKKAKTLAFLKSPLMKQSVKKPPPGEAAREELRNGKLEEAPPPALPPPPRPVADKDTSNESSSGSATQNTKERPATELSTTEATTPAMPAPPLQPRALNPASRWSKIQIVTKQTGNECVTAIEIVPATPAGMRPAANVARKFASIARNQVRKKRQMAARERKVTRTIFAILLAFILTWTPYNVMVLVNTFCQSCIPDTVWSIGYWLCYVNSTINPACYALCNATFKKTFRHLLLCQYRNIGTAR

[10] = Rat CLint; format: in vitro ADME
Method: as §1

[11] = Human CLint; format: in vitro ADME
Method: as §1

[12] = target: P450 2D6 (Homo sapiens, UniProt P10635); test: P450 2D6 inhibition; format: in vitro ADME
Chain of P450 2D6 (P10635 whole entry): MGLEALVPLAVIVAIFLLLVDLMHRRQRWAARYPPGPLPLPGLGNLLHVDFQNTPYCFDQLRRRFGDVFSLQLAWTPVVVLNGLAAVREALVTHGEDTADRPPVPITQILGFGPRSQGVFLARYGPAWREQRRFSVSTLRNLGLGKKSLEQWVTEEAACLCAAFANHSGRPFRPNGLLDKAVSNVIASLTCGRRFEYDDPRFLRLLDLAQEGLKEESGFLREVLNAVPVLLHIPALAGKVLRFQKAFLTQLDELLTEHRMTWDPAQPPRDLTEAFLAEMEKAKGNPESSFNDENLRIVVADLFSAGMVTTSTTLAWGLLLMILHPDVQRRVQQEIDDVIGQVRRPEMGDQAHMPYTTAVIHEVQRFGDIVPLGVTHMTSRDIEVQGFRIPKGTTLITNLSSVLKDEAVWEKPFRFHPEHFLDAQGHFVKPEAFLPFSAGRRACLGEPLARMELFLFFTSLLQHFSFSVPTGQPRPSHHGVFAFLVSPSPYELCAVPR
Method: as §1

Chain of P450 2C9 (P11712 whole entry): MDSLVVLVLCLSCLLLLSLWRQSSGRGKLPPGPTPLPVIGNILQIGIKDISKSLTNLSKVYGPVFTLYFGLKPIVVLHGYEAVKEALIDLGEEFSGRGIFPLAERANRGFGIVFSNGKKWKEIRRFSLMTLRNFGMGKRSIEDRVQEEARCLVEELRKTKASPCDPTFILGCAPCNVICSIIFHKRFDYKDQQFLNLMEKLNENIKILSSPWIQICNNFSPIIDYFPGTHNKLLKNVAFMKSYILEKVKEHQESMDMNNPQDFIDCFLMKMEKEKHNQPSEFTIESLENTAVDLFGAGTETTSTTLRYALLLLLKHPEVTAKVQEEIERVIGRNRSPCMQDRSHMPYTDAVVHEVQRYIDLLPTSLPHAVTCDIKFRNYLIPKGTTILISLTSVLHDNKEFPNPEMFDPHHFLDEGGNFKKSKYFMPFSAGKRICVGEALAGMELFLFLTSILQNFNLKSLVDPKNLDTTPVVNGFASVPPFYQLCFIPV

IC50 [1]: 17 µM
fraction unbound [2]: 0.016
fraction unbound [3]: 0.024
Papp A→B [4]: 46.7 ×10⁻⁶ cm/s
MDCK-MDR1 ER [5]: 1.5 (Papp A→B:
fraction unbound [6]: 0.014
IC50 [8]: 17 µM
Emax at 30 µM ([9]; % ACh maximum at 30 μM, human M4): 70.4%
EC50 ([9]; CHO-K1 cells with human M4 and Gqi5, increase in EC20 acetylcholine response): 1.25 µM
CLint scaled [10]: 78 mL/min/kg
CLint scaled [11]: 26 mL/min/kg
IC50 [12]: > 30 µM
Structure (SMILES): Cc1nc(C)c2c(n1)sc1c(NCc3ccc(C(C)(C)O)cc3)ncnc12 [Compound 1, 2-(4-(((7,9-Dimethylthieno[2,3-d:4,5-d′]dipyrimidin-4-yl)amino)methyl)phenyl)propan-2-ol]
percent reversal of amphetamine-induced hyperlocomotion ([7]; 1 mg/kg p.o.): 30.5%
percent reversal of amphetamine-induced hyperlocomotion ([7]; 3 mg/kg p.o.): 41.1%
percent reversal of amphetamine-induced hyperlocomotion ([7]; 10 mg/kg p.o.): 54.2%
